Columns and labels:
Caco-2 cells = test: Wound healing (scratch) assay; assay type: cell-based, human; details: pre-incubated with 0.1 μM CID 2745687
ERK1/2 signaling pathway = details: pre-treated with 0.1 μM CID 2745687 for 1 hour

Row | Compound | wound-healing activity after GPR35 inhibition (Caco-2 cells) | ERK1/2 phosphorylation increase when treated with CID 2745687 (ERK1/2 signaling pathway)
1 | CCCOc1ccccc1-c1nc2nn[nH]c2c(=O)[nH]1 [zaprinast] | abolished | reversed
2 | human epidermal growth factor [EGF, a well-known wound therapeutic agent, positive control] | not inhibited | –
